Tests used:
[1] = test system: Chinese hamster lung fibroblast cells (CHL/IU cells); experiment: In vitro micronucleus cell induction test; type: cell-based
Description: (5) In vitro Micronucleus Cell Induction Test for Examining Genetic Toxicity: Presence of micronucleited cell-inducing activity of the test compounds on cultured cells due to chromosome aberration was examined by in vitro micronucleus test (mutagenesis test, 3, 238-245) by Lab-Tek method. The test was conducted by continuous treatment method, using Chinese hamster lung fibroblast cells (CHL/IU cells). The test compound concentration was set at three levels: 50% proliferation inhibitory concentration (IC50), and at the concentration levels attained by diluting it by common ratio one time and two times. […] One (1) mL of 0.075 M aqueous potassium chloride solution was added and a 5 minutes' hypotonic treatment was conducted at room temperature. After termination of the hypotonic treatment, the cells were fixed with a fixative (methanol: acetic acid=99:1). The slide detached from the chamber was stained with an aqueous […] orange solution (40 μg/mL). […] In the case wherein the micronucleited cells increased by a rate twice or more than that in the control well to which the solvent only had been added, the micronucleited cell induction activity was judged positive, and in the case wherein the increase rate was equivalent to that of the control, negative. The test results were as shown in the following Table 4, concurrently with the results of the test (4).

[2] = test system: Salmonella typhimurium TA100 and TA98, and Escherichia coli WP2 uvrA strains; experiment: Miniscreen method, bacterial reverse mutation, with and without metabolic activation; type: cell-based; details: 10-1,000 μg/well; with and without Rat Liver S9mix; positive = revertant colonies twice or more of control
Description: (4) Miniscreen Method for Examining Presence of Genetic Toxicity:
Reverse mutation-inducing activity of the test comounds on bacteira was examined by Miniscreen method (Environ. Mol. Mutagen., 35, 72-77). Salmonella typhimurium TA100 and TA98, and Escherichia coli WP2 uvrA strains were used for the test. The test was conducted by plate incorporation method as to both cases where metabolic activation was not conducted, or conducted. The dosages were set at six levels as 0, 10, 50, 100, 500 and 1,000 μg/well.
To the minimum glucose-agar medium formed on a 6-well plate, 0.02 mL of a test compound solution or a solvent, 0.1 mL of 0.1 M sodium-phosphate buffer (pH=7.4), 0.025 mL of the bacterial suspension and 0.5 mL of soft agar solution were added per well and mixed. Where metabolic activation was conducted, 0.1M sodium-phosphate buffer (pH=7.4) was replaced with 0.1 mL of Rat Liver S9mix. After the soft agar solution solidified, the bacterial strains were cultured at 37° C. for 48 hours. At the end of the culture the number of revertant colonies on the plate was visually counted using a colony counter. Reverse mutation inducing activity of each of the test compounds was judged to be positive where the number of the revertant colonies increased by twice or more than that in the solvent-added control well, and judged negative where the increase was equivalent to the control. […]

With `N#Cc1cc(OS(N)(=O)=O)ccc1N1CCN(CCCC2CCCCC2)CC1` [Example 13, 3-cyano-4-[4-(3-cyclohexylpropyl)piperazin-1-yl]-phenyl-O-sulfamate] the “In vitro micronucleited cell induction test” value [1] was “negative” and the “Miniscreen method (reverse mutation inducing activity)” value [2] was “negative”.
